Test results from patent US8231891B2, “Implantable drug depot for weight control” (Warsaw Orthopedic, Inc., priority 2009, dated 2012).

Assays:
[1] = long term use of the drug; cited from earlier work
[2] = Weight gain of rats receiving fluocinolone by daily subcutaneous injection; type: in vivo, Wistar rats; conditions: FIG. 39; systemic subcutaneous injection, 25 ug/kg daily for 22 days
Protocol: Forty Wistar rats were utilized in this study. The forty rats were divided into 4 groups. Group 1 rats (10 in total) each received fluocinolone acetonide via systemic subcutaneous injection at a dosage of 0.5 ug/kg daily. Group 2 rats (10 in total) each received fluocinolone acetonide via systemic subcutaneous injection at a dosage of 5 ug/kg daily. Group 3 rats (10 in total) each received fluocinolone acetonide via systemic subcutaneous injection at a dosage of 25 ug/kg daily. Group 4 rats (10 in total) were the control in this study and received saline injections.

Row | SMILES | average weight loss [1] | body weight increase compared to control rats (saline) [2]
1 | CCCCCCCCCCC[C@@H](C[C@@H]1OC(=O)[C@H]1CCCCCC)OC(=O)[C@H](CC(C)C)NC=O [Orlistat] | 6.4 lbs | –
2 | Cc1c(C(=O)NN2CCCCC2)nn(-c2ccc(Cl)cc2Cl)c1-c1ccc(Cl)cc1 [Rimonabant] | 10.4 lbs | –
3 | CC(C)CC(N(C)C)C1(c2ccc(Cl)cc2)CCC1 (stereo not shown) [Sibutramine] | 9.3 lbs | –
4 | CC1(C)O[C@@H]2C[C@H]3[C@@H]4C[C@H](F)C5=CC(=O)C=C[C@]5(C)[C@@]4(F)[C@@H](O)C[C@]3(C)[C@]2(C(=O)CO)O1 [fluocinolone acetonide, 6α-,9α-Difluoro-16 α-hydroxyprednisolone 16,17-acetonide] | – | did not exhibit as much body weight increase as control rats
